According to EP4813991A1 (iLeadBMS Co., Ltd., priority 2023, dated 2025):

Key:
[1] = system: HCC70 breast cancer cells; experiment: Zebrafish xenograft breast cancer model (HCC70); assay type: in vivo; details: 48 hours, compared to the vehicle, FIG. 6
Method: Transgenic Tg(fli1:EGFP)y1 zebrafish embryos were cultured in E3 embryo medium with 0.2 mM 1-phenyl-2-thiourea (PTU) at 28 °C for 48 hours. HCC70 breast cancer cells were cultured using RPMI-1640 medium supplemented with 10 % FBS, and AGS gastric cancer cells were cultured using F-12K medium supplemented with 10 % FBS. Each cell was collected, labeled with Dil red fluorescent dye, and then subcutaneously transplanted into 2-day-old zebrafish embryos. After selecting embryos with tumors, they were classified into experimental groups (20 embryos per group), and each Example compound dissolved and diluted in DMSO across 2 to 3 concentration ranges, a DMSO control group, or a comparative compound were added, followed by incubation at 35.5 °C for 48 hours or 72 hours. In the breast cancer model, primary tumors were collected immediately after transplantation (Day 0) and after 48 hours (Day 2), and in the gastric cancer model, primary tumors were obtained immediately after transplantation (Day 0) and after 72 hours (Day 3). Images of the collected tumors were analyzed for reduction in tumor size compared to the DMSO control group using image software, and the number of disseminated cancer cells after 3 days was manually counted through the captured images, with the results shown in FIGs. 6, 7, and 8. […]

[2] = system: NCI-H23; experiment: Lung cancer cell proliferation inhibitory activity, NCI-H23; assay type: cell-based; details: Homo sapiens, 72 hours, Cell Counting Kit-8, relative IC50
Method: (§1) Experiments were performed using three types of lung cancer cell lines to measure the cell proliferation inhibitory ability of the compounds of the present invention. NCI-H23 and NCI-H358 cells were dispensed into a 96-well plate at 100 µL of cell suspension per well using RPM11640 medium containing 10 % FBS and 1 % PS, followed by incubation in a cell incubator at 37 °C and 5 % CO2. A427 cells were dispensed into a 96-well plate at 100 µL of cell suspension per well using DMEM medium containing 10 % FBS and 1 % PS, followed by incubation in a cell incubator at 37 °C and 5 % CO2. The next day, each Example compound (such as Example 8) dissolved and diluted in DMSO across 10 concentration ranges and a DMSO control group were treated on the cells for 72 hours. After completion of the compound treatment, 10 µL of Cell Counting Kit-8 (Dojindo) reagent was added to each well of the 96-well plate, followed by incubation for 2 hours. After inserting the 96-well plate into an Envision plate reader […], luminescence signals were measured. Relative IC50 values were calculated by fitting a dose-response curve using Graphpad PRISM software.
(§2) The lung cancer cell proliferation inhibitory activities of the Example compounds measured by the method described above were evaluated according to the following criteria, and the results are presented in Table 17.

[3] = system: NCI-H358 cells; experiment: Lung cancer cell proliferation inhibitory activity, NCI-H358; assay type: cell-based; details: Homo sapiens, 72 hours, Cell Counting Kit-8, relative IC50
Method: as §1, §2

[4] = system: A427 cells; experiment: Lung cancer cell proliferation inhibitory activity, A427; assay type: cell-based; details: Homo sapiens, A-427; 72 hours, Cell Counting Kit-8, relative IC50
Method: as §1, §2

[5] = system: AsPC-1; experiment: Pancreatic cancer cell proliferation inhibitory activity, AsPC-1; assay type: cell-based; details: Homo sapiens, ASPC1; 72 hours, Cell Counting Kit-8, relative IC50
Method: (§3) Experiments were performed using three types of pancreatic cancer cell lines to measure the cell proliferation inhibitory ability of the compounds of the present invention. AsPC-1, MIA-PaCa2-Control, and Gemcitabine resistant-MIA-PaCa2 cells were dispensed into a 96-well plate at 100 uL of cell suspension per well using DMEM medium containing 10 % FBS and 1 % PS, followed by incubation in a cell incubator at 37 °C and 5 % CO2. The next day, the compound of Example 8 dissolved and diluted in DMSO across 10 concentration ranges and a DMSO control group were treated on the cells for 72 hours. After completion of the compound treatment, 10 µL of Cell Counting Kit-8 (Dojindo) reagent was added to each well of the 96-well plate, followed by incubation for 2 hours. […] were measured after inserting the 96-well plate into an Envision plate reader […]. Relative IC50 values were calculated by fitting a dose-response curve using Graphpad PRISM software.
(§4) The pancreatic cancer cell proliferation inhibitory activities of the Example compounds measured by the method described above were evaluated according to the following criteria, and the results are presented in Table 18.

[6] = system: Gemcitabine resistant-MIA-PaCa2 cells; experiment: Pancreatic cancer cell proliferation inhibitory activity, Gemcitabine resistant-MIA-PaCa2; assay type: cell-based; details: 72 hours, Cell Counting Kit-8, relative IC50
Method: as §3, §4

[7] = system: DLD-1; experiment: Colorectal cancer cell proliferation inhibitory activity, DLD-1; assay type: cell-based; details: Homo sapiens, 72 hours, Cell Counting Kit-8, relative IC50
Method: (§5) Experiments were performed using seven types of colorectal cancer cell lines to measure the cell proliferation inhibitory ability of each Example compound. DLD-1, LoVo, SW620, SW480, HCT116, HCT15, and HT29 cells were dispensed into a 96-well plate at 100 µL of cell suspension per well using RPMI1640 medium containing 10 % FBS and 1 % PS, followed by incubation in a cell incubator at 37 °C and 5 % CO2. The next day, each Example compound dissolved and diluted in DMSO across 10 concentration ranges and a DMSO control group were treated on the cells for 72 hours. After completion of the compound treatment, 10 µL of Cell Counting Kit-8 (Dojindo) reagent was added to each well of the 96-well plate, followed by incubation for 2 hours. […] were measured after inserting the 96-well plate into an Envision plate reader […]. Relative IC50 values were calculated by fitting a dose-response curve using Graphpad PRISM software.
(§6) The colorectal cancer cell proliferation inhibitory activities of the Example compounds measured by the method described above were evaluated according to the following criteria, and the results are presented in Table 19.

[8] = system: LoVo; experiment: Colorectal cancer cell proliferation inhibitory activity, LoVo; assay type: cell-based; details: Homo sapiens, 72 hours, Cell Counting Kit-8, relative IC50
Method: as §5, §6

[9] = system: SW620; experiment: Colorectal cancer cell proliferation inhibitory activity, SW620; assay type: cell-based; details: Homo sapiens, SW-620; 72 hours, Cell Counting Kit-8, relative IC50
Method: as §5, §6

Row | IC50 [2] [nM] | IC50 [3] [nM] | IC50 [4] [nM] | IC50 [5] [nM] | IC50 [6] [nM] | IC50 [7] [nM] | IC50 [8] [nM] | IC50 [9] [nM] | Structure (SMILES) | reduction in tumor size [1]
1 | – | – | – | – | – | – | – | – | N#CC1CN(c2cc(NCc3nc4cc(Cl)c(Cl)cc4[nH]3)c3ncc(C(F)(F)F)n3n2)C1 [Example 30, 1-(8-(((5,6-dichloro-1H-benzol[d]imidazol-2-yl)methyl)amino)-3-(trifluoromethyl)imidazo[1,2-b]pyridazin-6-yl)azetidine-3-carbonitrile] | dose-dependent reduction in tumor size
2 | ≤ 200 | ≤ 200 | ≤ 200 | ≤ 200 | ≤ 200 | ≤ 200 | ≤ 200 | ≤ 200 | CN1CCN(c2cc(NCc3nc4ccc(F)c(F)c4[nH]3)c3ncc(C(F)(F)F)n3n2)CC1 [Example 8, N-((6,7-difluoro-1H-benzo[d]imidazol-2-yl)methyl)-6-(4-methylpiperazin-1-yl)-3-(trifluoromethyl)imidazo[1,2-b]pyridazin-8-amine] | –
